The text below walks through data of PubChem BioAssay AID330 (DTP/NCI, 2004).

This assay deals with P388 leukemia ip, CD2F1 mice, survival T/C. The experiment in a line: NCI In Vivo Anticancer Drug Screen. Data for tumor model P388 Leukemia (intraperitoneal) in CD2F1 (CDF1) mice. The conditions noted are these: endpoint: median survival time, higher = longer survival. The essentials: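 Mice carrying the transplanted tumor received test compound or vehicle. Survival was recorded in each group, and the value is the treated-group measurement divided by that of the vehicle-treated control group.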

[1] abbreviates: dose: 25.0 mg/kg/injection, schedule: Q01DX009 (ip), vehicle: saline with Tween-80.
Where [2] appears, read: dose: 50.0 mg/kg/injection, schedule: Q01DX009 (ip), vehicle: saline with Tween-80.
[3] abbreviates: dose: 50.0 mg/kg/injection, schedule: Q01DX009 (ip), vehicle: Klucel (hydroxypropylcellulose) (HPC).
[4] abbreviates: dose: 60.0 mg/kg/injection, schedule: Q01DX005 (ip), vehicle: saline with Tween-80.
Where [5] appears, read: dose: 120.0 mg/kg/injection, schedule: Q01DX005 (ip), vehicle: saline with Tween-80.
Setting [6] is: dose: 240.0 mg/kg/injection, schedule: Q01DX005 (ip), vehicle: saline with Tween-80.

Where “and” joins values, the source holds several entries; their conditions need not be identical. Equal values may be shown once. Inconclusive results and toxic doses are left out.

In the case of `S=c1nc(N(c2ccccc2)c2ccccc2)[nH]s1`, the T/C is, setting by setting: (dose: 12.5 mg/kg/injection, schedule: Q01DX009 (ip), vehicle: saline with Tween-80) 104 % of control; under setting [1], 101 % of control; under setting [2], 93 % of control.

On to `CCCN(C)C(=O)N(CCCl)N=O`, for which the T/C reads like this: (dose: 16.0 mg/kg/injection, schedule: Q01DX001 (ip), vehicle: water) 166 % of control; (dose: 32.0 mg/kg/injection, schedule: Q01DX001 (ip), vehicle: water) 240 % of control.

With `N#CN`, the T/C is, setting by setting: (dose: 12.5 mg/kg/injection, schedule: Q01DX009 (ip), vehicle: suspension in saline) 103 % of control; (dose: 25.0 mg/kg/injection, schedule: Q01DX009 (ip), vehicle: suspension in saline) 97 % of control; (dose: 50.0 mg/kg/injection, schedule: Q01DX009 (ip), vehicle: saline) 91 % of control and 103 % of control; (dose: 50.0 mg/kg/injection, schedule: Q01DX009 (ip), vehicle: suspension in saline) 107 % of control; (dose: 100.0 mg/kg/injection, schedule: Q01DX009 (ip), vehicle: saline) 101 % of control and 106 % of control; (dose: 200.0 mg/kg/injection, schedule: Q01DX009 (ip), vehicle: saline) 102 % of control.

With `COC(=O)c1ccc(OCCC(=O)CCl)cc1`, the T/C under setting [3] is 102 % of control and the T/C (dose: 100.0 mg/kg/injection, schedule: Q01DX009 (ip), vehicle: Klucel (hydroxypropylcellulose) (HPC)) was 106 % of control.

For `CCOC(=O)C(C(=O)OCC)=C1C(=O)Nc2ccccc21`, the T/C by setting is: (dose: 100.0 mg/kg/injection, schedule: Q04DX002 (ip), vehicle: Klucel (hydroxypropylcellulose) (HPC)) 106 % of control; (dose: 200.0 mg/kg/injection, schedule: Q04DX002 (ip), vehicle: Klucel (hydroxypropylcellulose) (HPC)) 106 % of control; (dose: 400.0 mg/kg/injection, schedule: Q04DX002 (ip), vehicle: Klucel (hydroxypropylcellulose) (HPC)) 109 % of control.

`Cn1c(=S)[nH]n(CCOc2ccccc2)c1=S`: the T/C was 118 % of control under setting [4]; 98 % of control and 99 % of control and 108 % of control under setting [5]; 109 % of control and 123 % of control and 97 % of control under setting [6]; 105 % of control and 96 % of control (dose: 480.0 mg/kg/injection, schedule: Q01DX005 (ip), vehicle: saline with Tween-80).

`CCOC(=O)c1ccc(NC(=O)Nc2nc3c(Cl)cccc3s2)cc1`: the T/C was 104 % of control under setting [2]; 94 % of control (dose: 100.0 mg/kg/injection, schedule: Q01DX009 (ip), vehicle: saline with Tween-80); 87 % of control (dose: 200.0 mg/kg/injection, schedule: Q01DX009 (ip), vehicle: saline with Tween-80).

Turning to `COC(=O)c1c(OC)cc2cc3c(c(O)c2c1C)C(=O)C1(O)C(=O)C=C(OC)C(OC(=O)CC(C)N)=C1C3=O` (stereo not drawn), the T/C is 103 % of control (dose: 25.0 mg/kg/injection, schedule: Q01DX005 (ip), vehicle: water); 100 % of control (dose: 50.0 mg/kg/injection, schedule: Q01DX005 (ip), vehicle: water); 104 % of control (dose: 100.0 mg/kg/injection, schedule: Q01DX005 (ip), vehicle: water).

Regarding `O=C1Cc2ccccc2CC1CC1Cc2ccccc2CC1=O` (stereo not drawn), the T/C under setting [3] was 87 % of control and the T/C (dose: 200.0 mg/kg/injection, schedule: Q01DX009 (ip), vehicle: Klucel (hydroxypropylcellulose) (HPC)) is 91 % of control.

Consider `CC(=O)SSC(C)(C)C`, for which the T/C is, setting by setting: (dose: 50.0 mg/kg/injection, schedule: Q01DX005 (ip), vehicle: saline) 105 % of control; (dose: 100.0 mg/kg/injection, schedule: Q01DX005 (ip), vehicle: saline) 114 % of control; (dose: 200.0 mg/kg/injection, schedule: Q01DX005 (ip), vehicle: saline) 103 % of control.

Turning to `CCCCCCCCC1SC1CCCCCCCCOC(=O)CCCCCCCC1SC1CCCCCCCC` (stereo not drawn), the T/C is 95 % of control (dose: 100.0 mg/kg/injection, schedule: Q01DX001 (ip), vehicle: saline with Tween-80); 95 % of control (dose: 200.0 mg/kg/injection, schedule: Q01DX001 (ip), vehicle: saline with Tween-80); 95 % of control (dose: 400.0 mg/kg/injection, schedule: Q01DX001 (ip), vehicle: saline with Tween-80).

Regarding `C[n+]1c(-c2ccc(/C=N/NC(=O)C(=O)N/N=C/c3ccc(-c4cn5ccccc5[n+]4C)cc3)cc2)cn2ccccc21`, the T/C is, setting by setting: (dose: 7.5 mg/kg/injection, schedule: Q01DX005 (ip), vehicle: saline) 109 % of control; (dose: 15.0 mg/kg/injection, schedule: Q01DX005 (ip), vehicle: saline) 119 % of control.

For `O=C1CC(O)C2C(=O)c3c(c(Cl)c4ccccc4c3O)C(=O)C2C1` (stereo not drawn), the T/C by setting is: (dose: 60.0 mg/kg/injection, schedule: Q01DX005 (ip), vehicle: Klucel (hydroxypropylcellulose) (HPC)) 94 % of control; (dose: 120.0 mg/kg/injection, schedule: Q01DX005 (ip), vehicle: Klucel (hydroxypropylcellulose) (HPC)) 94 % of control; (dose: 240.0 mg/kg/injection, schedule: Q01DX005 (ip), vehicle: Klucel (hydroxypropylcellulose) (HPC)) 93 % of control.

`COc1cc2c(cc1OC)-c1c(O)c(OC)cc3c1C(C2)N(C)CC3` (stereo not drawn): the T/C is, setting by setting: (dose: 1.12 mg/kg/injection, schedule: Q01DX009 (ip), vehicle: Klucel (hydroxypropylcellulose) (HPC)) 100 % of control; (dose: 1.25 mg/kg/injection, schedule: Q01DX009 (ip), vehicle: Klucel (hydroxypropylcellulose) (HPC)) 103 % of control; (dose: 2.25 mg/kg/injection, schedule: Q01DX009 (ip), vehicle: Klucel (hydroxypropylcellulose) (HPC)) 100 % of control and 103 % of control; (dose: 2.5 mg/kg/injection, schedule: Q01DX009 (ip), vehicle: Klucel (hydroxypropylcellulose) (HPC)) 91 % of control; (dose: 4.5 mg/kg/injection, schedule: Q01DX009 (ip), vehicle: Klucel (hydroxypropylcellulose) (HPC)) 103 % of control; (dose: 5.0 mg/kg/injection, schedule: Q01DX009 (ip), vehicle: Klucel (hydroxypropylcellulose) (HPC)) 97 % of control. Further, the T/C is 110 % of control and 95 % of control (dose: 9.0 mg/kg/injection, schedule: Q01DX009 (ip), vehicle: Klucel (hydroxypropylcellulose) (HPC)); 97 % of control (dose: 10.0 mg/kg/injection, schedule: Q01DX009 (ip), vehicle: Klucel (hydroxypropylcellulose) (HPC)); 93 % of control (dose: 18.0 mg/kg/injection, schedule: Q01DX009 (ip), vehicle: Klucel (hydroxypropylcellulose) (HPC)).

As to `O=C1c2cscc2C(=O)c2c(Cl)sc(Cl)c21`, the T/C under setting [1] was 95 % of control.

Consider `CN1NC(c2ccccc2)=C(C#N)C(=O)CC1c1ccc(Cl)cc1` (stereo not drawn), for which the T/C reads like this: (dose: 3.75 mg/kg/injection, schedule: Q01DX005 (ip), vehicle: saline with Tween-80) 117 % of control; (dose: 7.5 mg/kg/injection, schedule: Q01DX005 (ip), vehicle: saline with Tween-80) 100 % of control and 101 % of control and 113 % of control.

`O=C1c2c(O)ccc(O)c2C(=O)c2c(NCCCCO)ccc(NCCCCO)c21`: the T/C (dose: 0.62 mg/kg/injection, schedule: Q01DX009 (ip), vehicle: acid diluted with saline) was 103 % of control; the T/C (dose: 1.25 mg/kg/injection, schedule: Q01DX009 (ip), vehicle: acid diluted with saline) was 103 % of control; the T/C (dose: 2.5 mg/kg/injection, schedule: Q01DX009 (ip), vehicle: acid diluted with saline) was 103 % of control; the T/C (dose: 5.0 mg/kg/injection, schedule: Q01DX009 (ip), vehicle: acid diluted with saline) was 112 % of control; the T/C (dose: 10.0 mg/kg/injection, schedule: Q01DX009 (ip), vehicle: acid diluted with saline) is 102 % of control; the T/C (dose: 20.0 mg/kg/injection, schedule: Q01DX009 (ip), vehicle: acid diluted with saline) was 100 % of control. The T/C runs as follows: (dose: 40.0 mg/kg/injection, schedule: Q01DX009 (ip), vehicle: acid diluted with saline) 98 % of control; (dose: 80.0 mg/kg/injection, schedule: Q01DX009 (ip), vehicle: acid diluted with saline) 92 % of control; (dose: 160.0 mg/kg/injection, schedule: Q01DX009 (ip), vehicle: acid diluted with saline) 86 % of control.

In the case of `CC1(C)OCC(C2OC(C)(C)OC2C(O)c2ccco2)O1` (stereo not drawn), the T/C by setting is: (dose: 12.5 mg/kg/injection, schedule: Q01DX009 (ip), vehicle: distilled water + Tween-80) 106 % of control and 100 % of control; (dose: 25.0 mg/kg/injection, schedule: Q01DX009 (ip), vehicle: distilled water + Tween-80) 115 % of control and 117 % of control; (dose: 50.0 mg/kg/injection, schedule: Q01DX009 (ip), vehicle: distilled water + Tween-80) 105 % of control and 118 % of control; (dose: 100.0 mg/kg/injection, schedule: Q01DX009 (ip), vehicle: distilled water + Tween-80) 118 % of control and 115 % of control; (dose: 200.0 mg/kg/injection, schedule: Q01DX009 (ip), vehicle: distilled water + Tween-80) 115 % of control.

Take `CC(C)(C)c1ccc(-c2cc3nc(C(F)(F)F)cc(=O)n3[nH]2)cc1`: the T/C runs as follows: under setting [4], 89 % of control; under setting [5], 89 % of control; under setting [6], 100 % of control.
